Experimental data taken from patent US5021419A, “Novel pyrazinoxide compound of NF-1616-904 and a pharmaceutical composition containing the same” (Otsuka Pharmaceutical Co., Ltd., priority 1987, dated 1991).

What was measured:
[1] = test system: P388/VCR cells; experiment: Effect for decreasing the tolerance against Vincristine in P388/VCR cells (Pharmacological Test-1); format: cell-based; settings: Control group, NF-1616-902 0; 48 hours
Source text: Effect for decreasing the tolerance against Vincristine in P388/VCR cells

[2] = test system: superoxide radicals (O2^-) release from the peritoneal macrophage cells of guinea pig; experiment: Inhibitory effect against superoxide radicals (O2^-) release from peritoneal macrophage cells by FMLP stimulation, cytochrome C reduction (Pharmacological Test-2); format: cell-based; settings: Cavia porcellus, Peritoneal macrophage cell; FMLP 10^-7 M; 2×10^6 cells/ml; OD550; read-out: 50% inhibitory concentration (IC50)
Procedure: Inhibitory effect of the pyrazinoxide compound of NF-1616-904 against superoxide radicals (O2^-) release from the peritoneal macrophage cells of guinea pig by stimulation:
Mineral oil was intraperitoneally administered to a guinea pig, then 96 hours after the administration, the peritoneal microphage cells were obtained.
Superoxide radicals (O2^-) were determined by means of reduction of cytochrome C according to the procedures described in an article by T. Matsumoto, et al. in Biochemical and Biophysical Research Communications, Vol. 88, No. 3 (1979), pages 974-979.
Thus, the peritoneal macrophage cells were added to make the final concentration of 2×10^6 cells/ml into 1 ml of 80 μM-cytochrome C solution, further the pyrazinoxide compound of NF-1616-904 was added thereto to make the test group sample. On the other hand, water added in place of the pyrazinoxide compound of NF-1616-904 to make the control group sample. Both test group and control group samples were subjected to a pure incubation at 37° C. for 1 minute.
As to the stimulating agent for releasing superoxide radicals (O2^-), formylmethionylleucylphenylalanine (FMLP) was added to make the final concentration of 10^-7 M into the above-mentioned test group sample and control group sample. Then, both samples were subjected to additional reaction for 1 minute. […]

[3] = test system: Masugi nephritis; experiment: Anti-albuminuria activity in Masugi nephritis (Pharmacological Test-3); format: in vivo, rat; settings: oral; for Ratio of inhibition of albuminuria: 24 hours after NT, versus control; for Albuminuria: urine 24 hours after NT, mean±S.E., six rats, control 120 ± 30
Procedure: Anti-albuminuria activity of the pyrazinoxide compound of NF-1616-904 in Masugi nephritis
Rat nephrotoxin (hereinafter referred to as "NT") was prepared as follows. Thus, the kidney cortex of a rat was homogenized with an equal amount of physiological saline, then the thus obtained homogenate was admixed with Freund's complete adjuvant (manufacture by Difco Laboratories, Inc., Detroit, Mich., U.S.A.) in the ratio of 1:1. Then, 2 ml of this mixture was administered subcutaneously to a rabbit (body weight: 3.1 kg) to have said rabbit immunized. 1.5 Months after the immunization, the blood was sampled from the heart of said rabbit, and the serum was obtained thereform. The serum thus obtained was inactivated at 56° C. for 30 minutes, and subjected to fractionation by salting out with a aqueous solution saturated with 40% of ammonium sulfate. By sampling of immunoglobulin-γ-globulin (IgG) fraction, the desired NT was obtained.
This test was conducted by using Wisterstrain male rats having 150-160 g body weight. Pyrazinoxide compound of NF-1616-904 of the present invention […] were orally administered forcedly. Additionally, 1 ml of NT was administered intravenously to the tail vein of said rat. On the other hand, in place of pyrazinoxide compound of NF-1616-904, physiological saline was administered to other rats to make the control group.
The total amount of urinary protein being excreted in the urine during 24 hours after the administration of NT was determined by turbidity method using sulfosalicylic acid and bovine serum albumin (BSA) as the reference substance, according to procedures described in an article by F. Kingsbury, et al. in J. Lab. Clin. Med., Vol. 11, (1926), pages 981-989.
The ratio of inhibition of albuminuria (%) in the test group was calculated by referring to the measured value in the control group. The test results are shown in the following Table 2, in which each of the test data are shown at the mean value±S. E. of the six rats used in each of test and control groups.

Structure (SMILES)	Cytotoxic concentration of Vincristine [1] [ng/mL]	IC50 [2] [µM]	Ratio of inhibition of albuminuria ([3]; 30 mg/kg) [%]	Albuminuria ([3]; 30 mg/kg) [mg/day]	Ratio of inhibition of albuminuria ([3]; 60 mg/kg) [%]	Albuminuria ([3]; 60 mg/kg) [mg/day]
CC[C@]1(O)C[C@H]2CN(CCc3c([nH]c4ccccc34)[C@@](C(=O)OC)(c3cc4c(cc3OC)N(C=O)[C@H]3[C@@](O)(C(=O)OC)[C@H](OC(C)=O)[C@]5(CC)C=CCN6CC[C@]43[C@@H]65)C2)C1 [Vincristine]	100					
COc1c(Cc2c[nH]c3ccccc23)[nH]c(=O)c(CC(C)C)[n+]1[O-] [NF-1616-904]		12	62.5	45 ± 16	26.7	88 ± 18
